According to patent US11478478B2, “2,3-disubstituted 1-acyl-4-amino-1,2,3,4-tetrahydroquinoline derivatives and their use as bromodomain inhibitors” (GLAXOSMITHKLINE INTELLECTUAL PROPERTY (NO.2) LIMITED, priority 2013, dated 2022):

What follows are compounds tested against T1, BRD4 BD2 (Homo sapiens, UniProt O60885, Y97A) (assay: TR-FRET binding assay, BRD4 BD2 (BD1-mutated protein)). Conditions: read-out: pIC50 in the BRD4 BD2 assay (converted).
T1 construct: BRD4 (1-477) (Y97A) and (Y390A); made in house; host or cells: E. coli (pET15b vector)
Method in brief: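 Displacement of Alexa Fluor647-labelled bromodomain ligand (at Kd) from 10 nM His-tagged BRD4 (1-477, Y97A) read by Eu-anti-His TR-FRET (665/615 ratio) in pH 7.4 HEPES buffer, 0.5% DMSO. Compound preincubated 30 min at rt, detection ≥30 min. pIC50 derived from four-parameter fit after normalisation to controls.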

Row | IC50 | SMILES
1 | 1000 to 100000 nM | CC(=O)N1c2ccc(C(=O)O)cc2[C@H](Nc2ccc(S(C)(=O)=O)cc2)[C@@H](C)[C@@H]1C1CC1 [Example 332, (2S,3R,4)-1-acetyl-2-cyclopropyl-3-methyl-4-((4-(methylsulfonyl)phenyl)amino)-1,2,3,4-tetrahydroquinoline-6-carboxylic acid]
2 | 1000 to 100000 nM | COc1cnc(N[C@H]2c3cc(C(N)=O)ccc3N(C(C)=O)[C@@H](C3CC3)[C@@H]2C)nc1C [Example 348, (2S,3R,4R)-1-acetyl-2-cyclopropyl-4-((5-methoxy-4-methylpyrimidin-2-yl)amino)-3-methyl-1,2,3,4-tetrahydroquinoline-6-carboxamide]
3 | 100 nM | CC(=O)N1c2ccc(C(N)=O)cc2[C@H](Nc2cccc(CO)n2)[C@@H](C)[C@@H]1C1CC1 [Example 350, (2S,3R,4R)-1-acetyl-2-cyclopropyl-4-((6-(hydroxymethyl)pyridin-2-yl)amino)-3-methyl-1,2,3,4-tetrahydroquinoline-6-carboxamide]
4 | 100 nM | CC(=O)N1c2ccc(C(N)=O)cc2[C@H](Nc2cccc(F)c2)[C@@H](C)[C@@H]1C1CC1 [Example 359, (2S,3R,4R)-1-acetyl-2-cyclopropyl-4-((3-fluorophenyl)amino)-3-methyl-1,2,3,4-tetrahydroquinoline-6-carboxamide]
5 | 100 nM | COc1cccc(N[C@H]2c3cc(C(N)=O)ccc3N(C(C)=O)[C@@H](C3CC3)[C@@H]2C)c1 [Example 360, (2S,3R,4R)-1-acetyl-2-cyclopropyl-4-((3-methoxyphenyl)amino)-3-methyl-1,2,3,4-tetrahydroquinoline-6-carboxamide]
6 | 100 nM | CC(=O)N1c2ccc(C(N)=O)cc2[C@H](Nc2ccc(C#N)cc2)[C@@H](C)[C@@H]1C1CC1 [Example 378, (2S,3R,4R)-1-acetyl-4-((4-cyanophenyl)amino)-2-cyclopropyl-3-methyl-1,2,3,4-tetrahydroquinoline-6-carboxamide]
7 | 100 nM | CC(=O)N1c2ccc(C(N)=O)cc2[C@H](Nc2ccc(Cl)cn2)[C@@H](C)[C@@H]1C1CC1 [Example 379, (2S,3R,4R)-1-acetyl-4-((5-chloropyridin-2-yl)amino)-2-cyclopropyl-3-methyl-1,2,3,4-tetrahydroquinoline-6-carboxamide]
8 | 1000 to 100000 nM | CC(=O)N1c2ccc(C(N)=O)cc2[C@H](Nc2nccc(N(C)C)n2)[C@@H](C)[C@@H]1C1CC1 [Example 387, (2S,3R,4R)-1-acetyl-2-cyclopropyl-4-((4-(dimethylamino)pyrimidin-2-yl)amino)-3-methyl-1,2,3,4-tetrahydroquinoline-6-carboxamide]
9 | 100 nM | COc1cc(C#N)ccc1N[C@H]1c2cc(C(N)=O)ccc2N(C(C)=O)[C@@H](C2CC2)[C@@H]1C [Example 390, (2S,3R,4R)-1-acetyl-4-((4-cyano-2-methoxyphenyl)amino)-2-cyclopropyl-3-methyl-1,2,3,4-tetrahydroquinoline-6-carboxamide]
10 | 1000 to 100000 nM | CC(=O)N1c2ccc(C(N)=O)cc2[C@H](Nc2cnc(C#N)c(Cl)c2)[C@@H](C)[C@@H]1C1CC1 [Example 391, (2S,3R,4R)-1-acetyl-4-((5-chloro-6-cyanopyridin-3-yl)amino)-2-cyclopropyl-3-methyl-1,2,3,4-tetrahydroquinoline-6-carboxamide]
11 | 100 nM | COc1ccc(N[C@H]2c3cc(C(N)=O)ccc3N(C(C)=O)[C@@H](C3CC3)[C@@H]2C)c(C#N)c1 [Example 392, (2S,3R,4R)-1-acetyl-4-((2-cyano-4-methoxyphenyl)amino)-2-cyclopropyl-3-methyl-1,2,3,4-tetrahydroquinoline-6-carboxamide]
12 | 100 nM | CC(=O)N1c2ccc(C(N)=O)cc2[C@H](Nc2ncccn2)[C@@H](C)[C@@H]1C1CC1 [Example 399, (2S,3R,4R)-1-acetyl-2-cyclopropyl-3-methyl-4-(pyrimidin-2-ylamino)-1,2,3,4-tetrahydroquinoline-6-carboxamide]
